{"source": "patent US20190254299A1", "about": "“METHODS OF HANDLING AVOCADOS AND SYSTEM” (AGROFRESH INC., priority 2012, published 2019)", "type_in_all_cases": "in vivo", "key": {"avocados [1]": {"system": "avocados", "assay": "Skin color rating, ethylene-treated fruit, Example 6", "set-up": "key to Skin Color ratings: 1 = full green to 5 = purple-black", "conditions": "for Skin Color ratings: ethylene-treated, 900 ppb MCP", "from_the_text": "(§1) Avocado skin color was rated using the following scale: • 1=full green • 2=green with traces of brown • 3=half green and half brown • 4=brown with traces of green • 5=purple-black\nAvocados were harvested, handled, and tested as in Example 1. Fruits were placed into MAP bags or else into “Poly bags” (plastic bags having more than 10 holes per bag, with each hole larger than 1 cm in diameter).\nThree fruits (approximately 1.8 kg of fruit) were placed in each bag. After placement into bags, fruit was exposed to ethylene (200 ppm for 24 hours at 22° C.). Then, the fruit was exposed to 1-MCP (900 ppb for 15 hours at 22° C.)."}, "avocados [2]": {"system": "avocados", "assay": "Pulp firmness by penetrometer, Example 1 (California)", "protocol": "As used herein, the “pulp firmness” of an avocado is measured using a penetrometer (Fruit Test™ FT40 penetrometer, from Wagner Instruments) having a plunger diameter of 8 mm Performing the test for pulp firmness destroys the avocado that is tested. When avocados are said herein to be treated in a certain way (e.g., harvested, shipped, exposed to a cyclopropene compound, etc.) when they have a certain specified pulp firmness, it is meant that, out of a group of avocados that have been harvested and treated as uniformly as reasonably possible, a sample of a relatively small number of avocados is removed and tested for pulp firmness. The large group of avocados is considered to have the pulp firmness that is the average value of the tests performed on the relatively small sample.\nPulp firmness was evaluated by peeling open 4 cm^2 of the avocado's peel using a fruit peeler provided with the penetrometer. The penetrometer was mounted on a manual stand with a lever to deliver unifoim force throughout the test. The avocado was placed with the peeled surface beneath the penetrometer tip with probe diameter of 8 mm, and the force required to punch through the pulp was measured. Each fruit was tested in 3 places.\n(§2) Avocados were harvested in Oxnard, Calif., USA and packed in cardboard boxes and shipped to Sacramento, Calif, USA. After 2 days of transportation part of the avocados were packed in MAP bags. The appropriate weight of avocados was placed in each bag after harvest and shipment. Bags were placed in RPC (Recycle Plastic Container) carrying devices. Avocados then were stored at room temperature (22° C.).\n(§3) The Test Protocol that was used was as follows. 60 MAP bags were packed. Each hag held approximately 1.7 kg (3.8 lb) of avocados. Three such bags were packed in each RPC. Total weight of avocados in MAP bags was approximately 102 kg. Approximately 51 kg of avocados were placed into RPC identical to those used for the MAP bags. The MAP-packaged avocados were packaged as follows: Nine fruits, approximately 1.7 kg (3.8 lb) were carefully placed into MAP bags, and the bags were sealed by twisting the open side of the bag, folding down the twisted end, and placing a rubber band around the twisted and folded end of the bag.\n(§4) Avocados were harvested with a very high firmness (not possible to measure with FTA Machines (Firmness Texture Analyzer)). The FTA higher limit was 156 N (351 bf). To monitor the ripening process of the avocados, extra fruits were bagged in MAP bags and the firmness was monitored every day, twice a day until the fruits achieve an average firmness of 111 N (25 lbf). All avocados were kept at room temperature (22° C.) until achieving an average firmness of 111 N (251 bf).\n(§5) After achieving an average firmness of 111 N (25 lbf) the avocados were randomly divided into treatment sets as follows:\n(§6) On the same day the avocados achieved 111 N (25 lbf) of average firmness, each treatment set was marked, placed in a hermetical chamber at room temperature (22° C.). All chambers were of equal size and packed the same way. Treatment was for 12 hr. In the chambers for the 3 “MCP” treatment groups, at the beginning of the treatment period, SmartFresh™ SmartTabs™ tablets (AgroFresh, Inc.) were placed in the chamber. The amount of SmartFresh™ SmartTabs™ tablets was chosen to achieve the indicated concentration of 1-methylcyclopropene in the atmosphere of the chamber. The SmartTabs™ tablets were contacted with water in the normal way to release 1-MCP.\n(§7) After the treatment in the chambers, the RPCs were moved into racks at room temperature for storage and observation. Avocados remained in the same bags throughout the packing, treatment in the chamber, and subsequent storage. Evaluation for skin color and pulp firmness was as follows. Day “zero” was the day the avocados were removed from the chamber and placed in storage. Each test result was the average of 12 fruits."}, "avocados [3]": {"system": "avocados", "assay": "Skin color rating of avocados, Example 1 (California)", "set-up": "key: 1 = full green, 3 = half green/half brown, 5 = purple-black", "from_the_text": "as §1, §2, §3, §4, §5, §6, §7"}}}
{"smiles": "CC1=CC1", "note": "[MCP, 1-methylcyclopropene]", "values": [{"measurement": "skin color compared with other treatments", "setting": "avocados [1]; MAP bags and 900 ppb of 1-MCP, days 1, 2, and 3", "result": "best skin color"}, {"measurement": "Skin Color ratings", "setting": "avocados [1]; MAP bag, day 0", "result": 2.1}, {"measurement": "Skin Color ratings", "setting": "avocados [1]; MAP bag, day 1", "result": 3.0}, {"measurement": "Skin Color ratings", "setting": "avocados [1]; MAP bag, day 2", "result": 3.3}, {"measurement": "Skin Color ratings", "setting": "avocados [1]; MAP bag, day 3", "result": 3.4}, {"measurement": "Skin Color ratings", "setting": "avocados [1]; MAP bag, day 4", "result": 4.4}, {"measurement": "Skin Color ratings", "setting": "avocados [1]; Poly bag, day 0", "result": 4.1}, {"measurement": "Skin Color ratings", "setting": "avocados [1]; Poly bag, day 1", "result": 4.9}, {"measurement": "Skin Color ratings", "setting": "avocados [1]; Poly bag, day 2", "result": 4.8}, {"measurement": "Skin Color ratings", "setting": "avocados [1]; Poly bag, day 3", "result": 4.8}, {"measurement": "Skin Color ratings", "setting": "avocados [1]; Poly bag, day 4", "result": 4.9}, {"measurement": "Pulp Firmness - Difference from Untreated Control", "setting": "avocados [2]; MAP bag, 300 ppb MCP, day 0", "result": 90, "unit": "Ns"}, {"measurement": "Pulp Firmness - Difference from Untreated Control", "setting": "avocados [2]; MAP bag, 300 ppb MCP, day 1", "result": 22, "unit": "Ns"}, {"measurement": "Pulp Firmness - Difference from Untreated Control", "setting": "avocados [2]; MAP bag, 300 ppb MCP, day 2", "result": 36, "unit": "Ns"}, {"measurement": "Pulp Firmness - Difference from Untreated Control", "setting": "avocados [2]; MAP bag, 300 ppb MCP, day 3", "result": 41.3, "unit": "Ns"}, {"measurement": "Pulp Firmness - Difference from Untreated Control", "setting": "avocados [2]; MAP bag, 300 ppb MCP, day 4", "result": 33, "unit": "Ns"}, {"measurement": "Pulp Firmness - Difference from Untreated Control", "setting": "avocados [2]; MAP bag, 600 ppb MCP, day 0", "result": 84, "unit": "Ns"}, {"measurement": "Pulp Firmness - Difference from Untreated Control", "setting": "avocados [2]; MAP bag, 600 ppb MCP, day 1", "result": 46, "unit": "Ns"}, {"measurement": "Pulp Firmness - Difference from Untreated Control", "setting": "avocados [2]; MAP bag, 600 ppb MCP, day 2", "result": 39, "unit": "Ns"}, {"measurement": "Pulp Firmness - Difference from Untreated Control", "setting": "avocados [2]; MAP bag, 600 ppb MCP, day 3", "result": 59.3, "unit": "Ns"}, {"measurement": "Pulp Firmness - Difference from Untreated Control", "setting": "avocados [2]; MAP bag, 600 ppb MCP, day 4", "result": 40, "unit": "Ns"}, {"measurement": "Pulp Firmness - Difference from Untreated Control", "setting": "avocados [2]; MAP bag, 900 ppb MCP, day 0", "result": 93, "unit": "Ns"}, {"measurement": "Pulp Firmness - Difference from Untreated Control", "setting": "avocados [2]; MAP bag, 900 ppb MCP, day 1", "result": 61, "unit": "Ns"}, {"measurement": "Pulp Firmness - Difference from Untreated Control", "setting": "avocados [2]; MAP bag, 900 ppb MCP, day 2", "result": 52, "unit": "Ns"}, {"measurement": "Pulp Firmness - Difference from Untreated Control", "setting": "avocados [2]; MAP bag, 900 ppb MCP, day 3", "result": 49.3, "unit": "Ns"}, {"measurement": "Pulp Firmness - Difference from Untreated Control", "setting": "avocados [2]; MAP bag, 900 ppb MCP, day 4", "result": 46, "unit": "Ns"}, {"measurement": "improvement over the untreated control (pulp firmness)", "setting": "avocados [2]; MCP alone at 600 ppb, day 3", "result": 4, "unit": "lbf"}, {"measurement": "Pulp Firmness - Difference from Untreated Control", "setting": "avocados [2]; No Bag, 600 ppb MCP, day 0", "result": 29, "unit": "Ns"}, {"measurement": "Pulp Firmness - Difference from Untreated Control", "setting": "avocados [2]; No Bag, 600 ppb MCP, day 1", "result": 14, "unit": "Ns"}, {"measurement": "Pulp Firmness - Difference from Untreated Control", "setting": "avocados [2]; No Bag, 600 ppb MCP, day 2", "result": 10, "unit": "Ns"}, {"measurement": "Pulp Firmness - Difference from Untreated Control", "setting": "avocados [2]; No Bag, 600 ppb MCP, day 3", "result": 17.3, "unit": "Ns"}, {"measurement": "Pulp Firmness - Difference from Untreated Control", "setting": "avocados [2]; No Bag, 600 ppb MCP, day 4", "result": 12, "unit": "Ns"}, {"measurement": "Skin Color ratings", "setting": "avocados [3]; MAP bag, 300 ppb MCP, day 0", "result": 1.7}, {"measurement": "Skin Color ratings", "setting": "avocados [3]; MAP bag, 300 ppb MCP, day 1", "result": 2.9}, {"measurement": "Skin Color ratings", "setting": "avocados [3]; MAP bag, 300 ppb MCP, day 2", "result": 2.3}, {"measurement": "Skin Color ratings", "setting": "avocados [3]; MAP bag, 300 ppb MCP, day 3", "result": 2.8}, {"measurement": "Skin Color ratings", "setting": "avocados [3]; MAP bag, 300 ppb MCP, day 4", "result": 2.3}, {"measurement": "Skin Color ratings", "setting": "avocados [3]; MAP bag, 600 ppb MCP, day 0", "result": 1.7}, {"measurement": "Skin Color ratings", "setting": "avocados [3]; MAP bag, 600 ppb MCP, day 1", "result": 2.3}, {"measurement": "Skin Color ratings", "setting": "avocados [3]; MAP bag, 600 ppb MCP, day 2", "result": 2.3}, {"measurement": "Skin Color ratings", "setting": "avocados [3]; MAP bag, 600 ppb MCP, day 3", "result": 2.2}, {"measurement": "Skin Color ratings", "setting": "avocados [3]; MAP bag, 600 ppb MCP, day 4", "result": 2.1}, {"measurement": "Skin Color ratings", "setting": "avocados [3]; MAP bag, 900 ppb MCP, day 0", "result": 1.6}, {"measurement": "Skin Color ratings", "setting": "avocados [3]; MAP bag, 900 ppb MCP, day 1", "result": 2.3}, {"measurement": "Skin Color ratings", "setting": "avocados [3]; MAP bag, 900 ppb MCP, day 2", "result": 2.3}, {"measurement": "Skin Color ratings", "setting": "avocados [3]; MAP bag, 900 ppb MCP, day 3", "result": 2.3}, {"measurement": "Skin Color ratings", "setting": "avocados [3]; MAP bag, 900 ppb MCP, day 4", "result": 2.4}, {"measurement": "Skin Color ratings", "setting": "avocados [3]; No Bag, 600 ppb MCP, day 0", "result": 2.6}, {"measurement": "Skin Color ratings", "setting": "avocados [3]; No Bag, 600 ppb MCP, day 1", "result": 3.0}, {"measurement": "Skin Color ratings", "setting": "avocados [3]; No Bag, 600 ppb MCP, day 2", "result": 2.8}, {"measurement": "Skin Color ratings", "setting": "avocados [3]; No Bag, 600 ppb MCP, day 3", "result": 3.8}, {"measurement": "Skin Color ratings", "setting": "avocados [3]; No Bag, 600 ppb MCP, day 4", "result": 3.4}]}
